Test results: patent US5990104A, “Polycyclic alcaloid-derivatives as NMDA-receptor antagonists” (priority 1995, dated 1999)

Columns and labels:
Type in all cases: in vivo
NMDA-induced convulsions = assay: Neuroprotective/anticonvulsant activity against NMDA-induced convulsions and mortality in mice; settings: for CD50 (95% confidence interval): icv, NMDA 1 nmole/mouse; for CD50 (95% confidence interval) / time course of protecting effects: mice; for neuroprotectant activity, dose dependence: NMDA challenge in mice, FIGS. 1-3; for time course of protecting effects: i.c.v. preadministration at various doses, NMDA challenge
Protocol: The term CD50 as shown in Table 1 is defined as the dose of drug which induces a 50% reduction in the number of deaths caused by NMDA administration.
For purposes of comparison, the compounds of the present invention and reference standards were administered to mice and the time course of neuroprotectant activity was determined subsequent to challenge by NMDA. Compounds were administered i.c.v. or i.p. at different times and concentrations prior to injection of NMDA (1 nmol/mouse, I.C.V.). The mortality rate (CD50) TABLE I and the response curves.
In FIG. 1, dextrorphan was i.c.v. preadministered at a concentration of 1.0 (closed circle); 5.0 (open square); and 10 (closed square) nmole/mouse. The open circle represents preadministration of saline at a concentration of 10 μl/mouse.
A does dependent time course profile of the neuroprotectant activity against NMDA induced convulsions of compound #9 in mice is illustrated in FIG. 3. […] In both FIGS. 2 and 3, the respective compound was preadministered at (open circle); 50 (closed circle); and 100 (closed square) nmole/mouse.
Comparison of anticonvulsant activity of compounds of the
present invention and dextrorphan against NMDA-induced
convulsions in mice (at 1 nmole/mouse)

[1] = Motor coordination by rotarod; settings: 8 rpm, Compound #13 compared to dextrorphan
Protocol: Motor effects illicited by various antagonists were assessed using a rotarod treadmill (model 7600, UGO Basile, Italy). The method used was similar to the procedure described by Dunhamand Miya (J. Am. Pharmac. Assoc. 46 208-209-1957). The apparatus consisted of a rod of 2.5 cm diameter which was suspended horizontally 50 cm above a working area. The rod was turned at a speed of 8 rpm. Circular perplex separators were placed at intervals along the rod so that five animals could be tested simultaneously. All animals were conditioned to the rod for two consecutive days prior to experimentation.
The results of a study in which comparative motor impairment caused by Compound #13 was compared to dextrorphan, as assessed by rotarod.

[2] = Locomotion and falling behaviour; settings: I.C.V., mice, observed 15 to 30 minutes
Protocol: Mice were place individually in observation cages for a 60 minute habituation period. They were injected I.C.V. with test compounds and observed for 15 to 30 minutes. Locomotion and falling behavior were assessed according to the procedure of Koek and Colpaert (J. Pharm. Exp. Therm. 252 349-357, 1990). For each animal, the presence of locomotor activity and falling behaviour was recorded. Statistical significance of drug-induced changes in the occurrence of a particular behaviour was tested by means of the method of Fray et al. (Psycopharmacol 69 253-259, 1980). MK-801, known to have intrinsic neurotoxicity, induced falling behaviour at doses as low as 1.5 nmol/mouse.

CC12CCCCSC(Cc3ccc(O)cc31)C2N (single isomer, unassigned; (+)) [Compound #9b, (+)-trans-5,6,7,8,9,11,12-heptahydro-10-thia-3-hydroxy-5-methyl-5,11-methanobenzocyclodecen-13amine]
CD50 (95% confidence interval) (NMDA-induced convulsions): 1.58 (0.95-2.62) nmo1/mouse

CC12CCCCSC(Cc3ccc(O)cc31)C2N (single isomer, unassigned; (-)) [Compound #9a, (-)-trans-5,6,7,8,9,11,12-heptahydro-10-thia-3-hydroxy-5-methyl-5,11-methanobenzocyclodecen-13-amine]
CD50 (95% confidence interval) (NMDA-induced convulsions): 2.90 (1.75-4.85) nmo1/mouse

COc1ccc2c(c1)C1(C)CCCCSC(C2)C1N (stereo not shown) [Compound #8b, 5,6,7,8,9,11,12-heptahydro-3-methoxy-5-methyl-10-thia-5,11-methanobenzocyclodecen-13-amine]
CD50 (95% confidence interval) (NMDA-induced convulsions): 7.64 (4.8-12.0) nmo1/mouse

CC12CCCCSC(Cc3ccc(O)cc31)C2N (stereo not shown) [Compound #9, 5,6,7,8,9,11,12-heptahydro-3-hydroxy-5-methyl-10-thia-5,11-methanobenzocyclodecen-13-amine]
neuroprotectant activity, dose dependence (NMDA-induced convulsions): dose dependent neuroprotectant activity effect | time course of protecting effects (NMDA-induced convulsions): time-dependent decreases in the protective effects | CD50 (95% confidence interval) (NMDA-induced convulsions): 0.95 (0.62-1.45) nmo1/mouse

CC12CCCCSC(Cc3ccc(O)cc31)C2NO (stereo not drawn) [Compound #10, 5,6,7,8,9,11,12-heptahydro-3-hydroxy-5-methyl-10-thia-5,11-methanobenzocyclodecene-13-β-hydroxylamine]
CD50 (95% confidence interval) (NMDA-induced convulsions): 1.79 (0.99-3.25) nmo1/mouse

CC12CCCCSC(Cc3ccc(O)cc31)C2NC(=N)N (stereo not drawn) [Compound #11, trans-5,6,7,8,9,11,12-heptahydro-10-thia-3-hydroxy-5-methyl-5,11-methanobenzocyclodecen-13-guanidine]
potency relative to Dextrorphan (NMDA-induced convulsions; NMDA-induced convulsions in mice): approximately 3 fold | anticonvulsive activity (NMDA-induced convulsions; NMDA-induced convulsions in mice, in words): greatest activity | CD50 (95% confidence interval) (NMDA-induced convulsions): 0.16 (0.11-0.25) nmo1/mouse

CC12CCCCCC(Cc3ccc(O)cc31)C2N (stereo not shown) [Compound #13, 5,6,7,8,9,11,12-heptahydro-3-hydroxy-5-methyl-5, 11-methanobenzocyclodecene-13-amine, reference compound]
neuroprotectant activity, dose dependence (NMDA-induced convulsions): dose dependent neuroprotectant activity effect | time course of protecting effects (NMDA-induced convulsions): time-dependent decreases in the protecting effects | CD50 (95% confidence interval) (NMDA-induced convulsions): 28.7 (15.3-53.8) nmo1/mouse | percentage of animals showing motor effects [1]: higher for animals treated with dextrorphan than for animals treated with Compound #13

CN1CC[C@@]23CCCC[C@@H]2[C@@H]1Cc1ccc(O)cc13 [Dextrorphan, dextrorphan, reference compound]
neuroprotectant activity, dose dependence (NMDA-induced convulsions): dose dependent neuroprotectant activity effect | time course of protecting effects (NMDA-induced convulsions): time-dependent decreases in the protecting effects | CD50 (95% confidence interval) (NMDA-induced convulsions): 0.55 (0.39-0.78) nmo1/mouse | percentage of animals showing motor effects [1]: higher for animals treated with dextrorphan than for animals treated with Compound #13

C[C@]12N[C@H](Cc3ccccc31)c1ccccc12 [MK-801]
dose inducing falling behaviour (as low as) [2]: 1.5 nmol/mouse
